Our source for the IC50 values is paper PMC12648092 (Acta Pharmaceutica Sinica. B, 2025).

A word on the pIC50: it is the negative decadic logarithm of the IC50, by convention in mol/L. A higher pIC50 goes with a low IC50.

pIC50: −log10 of the molar value.

The target in the test is AChE (Homo sapiens, UniProt P22303). The test is described as follows: ROCMCBs.
Sequence of AChE (P22303 32-617 isoform P22303-2 limits assumed): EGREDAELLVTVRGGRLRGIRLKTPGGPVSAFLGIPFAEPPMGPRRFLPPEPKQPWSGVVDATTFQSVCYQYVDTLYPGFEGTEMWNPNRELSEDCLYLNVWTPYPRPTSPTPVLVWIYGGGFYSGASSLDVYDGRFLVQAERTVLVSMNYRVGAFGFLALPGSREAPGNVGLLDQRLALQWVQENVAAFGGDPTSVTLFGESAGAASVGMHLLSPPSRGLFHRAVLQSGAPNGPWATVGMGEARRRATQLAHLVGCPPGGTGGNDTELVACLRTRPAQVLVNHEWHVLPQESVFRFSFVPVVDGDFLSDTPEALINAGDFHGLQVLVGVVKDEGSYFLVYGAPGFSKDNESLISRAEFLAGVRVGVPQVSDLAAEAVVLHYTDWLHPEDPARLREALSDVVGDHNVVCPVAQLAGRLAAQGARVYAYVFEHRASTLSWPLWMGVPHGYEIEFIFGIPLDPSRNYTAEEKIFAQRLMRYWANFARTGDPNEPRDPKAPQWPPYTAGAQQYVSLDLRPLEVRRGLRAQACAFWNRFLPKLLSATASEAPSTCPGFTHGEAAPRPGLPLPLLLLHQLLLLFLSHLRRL
Consider `O=C(O)[C@H]1O[C@@H](Oc2cc3oc(-c4ccccc4)cc(=O)c3c(O)c2O)[C@H](O)[C@@H](O)[C@@H]1O` [baicalin], for which the pIC50 is 4.91.

For `OCc1ccc(O[C@@H]2O[C@H](CO)[C@@H](O)[C@H](O)[C@H]2O)cc1` [gastrodin], the pIC50 was 5.49.

As to `COC(=O)C1=CO[C@@H](O[C@@H]2O[C@H](CO)[C@@H](O)[C@H](O)[C@H]2O)[C@@H]2C(CO)=CC[C@H]12` [geniposide], the pIC50 was 5.08.

Turning to `CC[C@H]1CN2CC[C@]3(C(=O)Nc4ccccc43)[C@@H]2C[C@@H]1/C(=C\OC)C(=O)OC` [rhynchophylline], the pIC50 was 4.18.
